In patent US7691579B2, “Methods and compositions for producing an enhanced immune response to a human papillomavirus immunogen” (priority 2005, dated 2010):
“Also recorded” adds a separate entry of the source.

Assays:
[1] = system: C1R.ADD target cells pulsed with E2 peptides; test: IFN-gamma ELISPOT assay in immunized AAD mice, response to E2; format: in vivo, HLA-A2 transgenic mice (AAD); conditions: for IFN-gamma producing cells (ELISPOT) / T cell response to E2 (IFN-gamma ELISPOT), in words: AAD mice; for IFN-gamma producing cells (ELISPOT): E2 peptides + GM-CSF + anti-CD40 in IFA, boosted with E2 peptides in IFA; for T cell response to E2 (IFN-gamma ELISPOT), in words: protocol as labelled
Description: AAD Mice were immunized with three E2 peptides. […] A target cell, C1R.ADD, was pulsed with peptides. C1R.ADD alone was used as negative control, and E7 86-93 was used as a specificity control. Mice are immunized with the indicated 1st immunization and are then given the indicated 2nd immunization (booster immunization) four weeks later. The G1, G2, and G3 immunization protocols employed are as follows: G1 (1st immunization: IFA+GM-CSF+anti-CD40 antibody+E2 peptides; 2nd immunization: IFA+E2 peptides); G2 (1st immunization: IFA+GM-CSF+anti-CD40 antibody+E2 peptides; 2 immunization: none); G3 (1st immunization: none; 2nd immunization: IFA+E2 peptides).
AAD Mice were immunized with different combinations of VLP-E7E2 and E2 peptides with/without Gm-CSF and αCD40. Target cells were pulsed with E2 peptide. Immunization with E7 11-20 peptides is used as a control. The G1 and G2 immunization protocols employed are as follows: G1 (1st immunization: IFA+GM-CSF+anti-CD40 antibody+E2 69-77 peptides); G2 (1st immunization: L1-VLP-L2-E2-E7+GM-CSF+anti-CD40 antibody).
Target cells are C1R.ADD cells pulsed with the indicated peptides.
(§1) Immunization: Mice were immunized subcutaneously at the base of the tail with the chimeric VLPs. GM-CSF (Preprotech, Rocky Hill, N.J.) was given the day before and the same day as the VLP injection. Anti-CD40 (SouthernBiotech, Birmingham Ala.) was given with the VLP. Mice were also immunized with 50 nmoles of peptide in incomplete Freund's adjuvant (IFA) with or without GM-CSF (5 μg/mouse) and anti-CD40 (10 μg/mouse). All vaccines were prepared immediately prior to injection. Each group had 4 mice, and the pooled spleen cells from four mice were used for assays. 10 μg of VLP-E7E2 was given to a mouse. The MW of the VLP-E7E2 is about 5280 Kd (72×L1@55 Kd=3960 Kd, and 12×L2E7E2@110 kd=1320 Kd). The number of moles of VLP-E7E2 in 10 μg of total protein is about […].
ELISPOT assay: The number of IFN-gamma-producing cells is also determined by ELISPOT assay. The anti-IFN-gamma antibody, 5 μg/ml, in PBS are coated on Millipore's multiscreen-HA plate (Millipore, Marlborough, Mass.) overnight at 4° C. The plate is blocked by incubation in RPMI containing 10% FCS for 3 hours at room temperature, and then the plate is washed two or three times with PBS. Target cells, EL-4 or C1R.ADD, are incubated with or without peptides for 2 hour at room temperature, washed twice. Then, they were placed at 5,000 per well. The effector cells were from 40,000 to 50,000 per well. After a 20 hour incubation period at 37° C., the plate is washed six times with PBS containing 0.05% Tween 20. The biotin-labeled anti-IFN-gamma, at 2 μg/ml, is added to the plate. After a 3 hour incubation period at room temperature, the plate is washed six times, and developed using an ABC kit from Vector Lab (Burlingame, Calif.). The spots are counted using Immunspot™ CTL (Cleveland Ohio). Data are expressed as an average from triplicate wells.
Induction of CD8+ T Cell Response to E2 Peptides. […] One group of mice was boosted with E2 peptides in IFA emulsion (IFA-E2) two weeks later. An IFN-gamma ELISPOT assay was performed using spleen cells collected either two or four weeks after vaccination as shown in FIG. 14. The immunization protocol is shown in Table 4 below (50 nmoles of each immunogen was employed; “E2s” refers to E2 peptides).
Enhancing CTL Response to E2. […] When AAD mice were immunized with either 50 nmoles E2 69-77 with immune modulators in IFA or 24 pmoles of VLP-E7E2 with immune-modulators in aqueous solution, a marginal CD8+ T cell response to E2 was detected by ELISPOT assay using fresh isolated spleen cells from both groups of mice (FIG. 15, Panel A and Panel B). […]

HLA-A2 = molecular target: T1, HLA-A2 (Homo sapiens, UniProt P04439, D140Y/D185E/D98H/E176V/E277Q/G131W/G231S/I119V/I121R/I166T/I218V/L300P/L318F/N151K/N90K/P208A/P217A/Q86G/Q94H/R138H/R169H/T345S); test: T2 binding assay (HLA-A2 stabilisation on T2 cells, fluorescence index)
T1 construct: The T2 cell expresses HLA-A2 and is TAP1 and TAP2 deficient; endogenous in cells; host or cells: T2 cells
Procedure: The sequences are derived from HPV 16 E2. T2 cells were loaded with various concentrations of peptides. Level of surface class I molecules were assessed by flow cytometric analysis using mouse monoclonal antibodies specific for HLA-A2. Fluorescence index=Fluorescence after peptide stimulation/Fluorescence without peptide −1.
Since little was known about the MHC class I epitopes for E2, HLA-A2 binding sequences derived from HPV 16 E2 were investigated. […] To test the binding affinity of these peptides to HLA-A2, a T2 binding assay was performed. The T2 cell expresses HLA-A2 and is TAP1 and TAP2 deficient.

[2] = system: wild type (SEQ ID NO: 1) and modified (SEQ ID NO: 9) E2 peptides; test: Elispot assay of mice immunized with wild type or modified E2 138-147 peptide; format: in vivo; conditions: mice immunized with the labelled peptide
[3] = system: EL-4 target cells pulsed with E7 49-57 peptides; test: CTL assay (51Cr release) with spleen cells of immunized C57BL/6 mice; format: in vivo; conditions: given in aqueous solution with VLP-E7E2
Procedure: as §1
(§2) CTL assay: Two (or three) weeks after immunization, spleens were aseptically removed and single cell suspensions are prepared. […] Cytolytic activity of cells is measured by a 4-h assay with ^51Cr-labeled EL-4 or C1R.AAD target cells in triplicate wells. Percent ^51Cr release is calculated as 100×(experimental release-spontaneous release)/(maximum release-spontaneous release). Maximum release is determined from supernatants of cells that are lysed by addition of […]. Spontaneous release is determined from target cells culture in medium. Data are expressed as an average from triplicate wells. […]

[4] = system: C1R.AAD target cells pulsed with E7 11-20 and E7 86-93 peptides; test: CTL assay (51Cr release) with spleen cells of immunized AAD mice, response to E7; format: in vivo, HLA-A2 transgenic mice (AAD); conditions: co-injected in aqueous solution
Procedure: as §1, §2

Molecule | IFN-gamma producing cells (ELISPOT) [1] [spots/million] | T cell response to E2 (IFN-gamma ELISPOT), in words [1] | binding to HLA-A2, in words (HLA-A2) | concentration at FI 0.5 (HLA-A2) [µM] | other results
YICEEASVTV [E2 138-147] | 53 | induce a CD8+ T cell response; also recorded: immunogenic | high binding affinity; also recorded: displayed binding ability | 50 | IFN-gamma production (ELISPOT), response to E2 ([1]; boosted with E2 peptides in IFA four weeks after the initial immunization): more immunogenic; immune response to wild type and modified E2 peptides (Elispot) [2]: failed to elicit an immune response
YLAEEASVTV [E2 138-147 modified] | – | – | higher HLA.A2 binding affinity | – | immune response to wild type and modified E2 peptides (Elispot) ([2]; listed as modified peptide (SEQ ID NO: 9)): elicit an immune response to both; immune response to wild type and modified E2 peptides (Elispot) ([2]; listed as new peptide (SEQ ID NO: 9)): more immunogenic
TLQDVSLEV [E2 93-101, HPV 16 E2 peptide] | – | did not elicit a T cell response | did not bind; also recorded: no binding activity | – | –
ALQAIELQL [E2 69-77, HPV 16 E2 peptide] | 32 | induce a CD8+ T cell response; also recorded: immunogenic | high binding affinity; also recorded: displayed binding ability | 50 | –
RLNVCQDKIL [E2 7-16, HPV 16 E2 peptide] | – | – | no binding activity | – | –
IL-2: murine IL-2 (Preprotech) (protein, UniProt P04351 21-169, looked up) Interleukin-2: APTSSSTSSSTAEAQQQQQQQQQQQQHLEQLLMDLQELLSRMENYRNLKLPRMLTFKFYLPKQATELKDLQCLEDELGPLRHVLDLTQSKSFQLEDAENFISNIRVTVVKLKGSDNTFECQFDDESATVVDFLRRWIAFCQSIISTSPQ | – | – | – | – | effect on the VLP-E7E2 induced CTL response [3]: no effect; effect of co-injection on the VLP-E7E2-induced CTL response to E7 [4]: no effect
